Laboratory results from patent US11324768B2, “Applications of triacetyl-3-hydroxyl phenyl adenosine in treating vascular inflammations or improving vascular endothelium functions” (priority 2016, dated 2022).

Experiments:
Format in all cases: in vivo
[1] = system: ApoE−/− mice; experiment: Blood lipid levels in high-fat-fed ApoE−/− mice; details: 200 mg/kg, 8 weeks, high-fat diet
Description: (§1) After 1 week of adaptive feeding, the animals were randomly divided into 7 groups according to body weight: normal control group, model control group A769662 (30 mg/kg) administration group, metformin (260 mg/kg) administration group, IMM-H007 low, medium, and high administration groups (50, 100, 200 mg/kg), 8 in each group, and were given a high-fat diet (78.6% basal diet, 10% lard, 1.0% cholesterol, 10% egg yolk powder, and 0.4% bile salt), and simultaneously administered intragastrically at a dose of 0.1 ml/10 g body weight, and were continuously administered and fed for 8 weeks to establish an atherosclerosis model.
(1) Effect of IMM-H007 on Blood Lipid Levels in ApoE−/− Mice: Total Cholesterol (TC), Triglyceride (TG), Low-Density Lipoprotein Cholesterol (LDL), High-Density Lipoprotein Cholesterol (HDL), and Free Fatty Acid (FFA)
Operated according to kit instructions

[2] = system: ApoE−/− mice; experiment: Plaque area in ApoE−/− mice (oil red O staining of aorta and aortic root); details: for plaque area, Overall length of aorta: in % (unit assumed)
Description: as §1, with “and were continuously administered and fed for 8 weeks to establish an atherosclerosis” left out
The aortic root was stained with oil red O and the overall length of the aorta was stained with oil red O. The pathological images were analyzed by Photoshop, Image 1, and Image-Pro Plus softwares. The pathological grading data were statistically analyzed using Chi-square test.

[3] = system: Ob/Ob obese mice; experiment: Biochemical indexes in Ob/Ob obese mice; details: 400 mg/kg
Description: After 1 week of adaptive feeding, animals were randomly divided into two groups according to body weight: model control group, and IMM-H007 group (400 mg/kg), 10 in each group, and were given normal feed and simultaneously administered intragastrically at a dose of 0.1 ml/10 g body weight, and were continuously administered and fed for 9 weeks. The changes of food intake and body weight were recorded, and routine biochemical indicators such as blood lipids and blood glucose, etc. were measured. After 9 weeks, 3 animals were taken from each group and the mesenteric arterioles were taken for measurement of vascular endothelial function in the same manner as in Example 2.
Detection Indicators (1) Routine Biochemical Indicators and (2) Vascular Endothelial Function

[4] = system: mesenteric arterioles; experiment: Microvascular endothelial function in Ob/Ob obese mice (mesenteric arterioles, Ach / SNP relaxation)
Description: PSS and KPSS solutions were configured according to the instructions and used at the same time of the day. The PSS solution was taken out before the start of the experiment and pre-oxygenated for about 20 min. The ApoE−/− mice, which were fed with high-fat and simultaneously administered for 10 weeks, were anesthetized with pentobarbital sodium. The mice were supine and fixed. The abdominal cavity was opened along the median line. The mesenteric vascular bed was isolated and placed in the pre-oxygenated 20-minute PSS buffer. Under a stereomicroscope, a third-order mesenteric artery with a length of about 3 mm was carefully isolated. Firstly, the blood vessel was fixed to a P1 glass cannula and the coil was tightened. Note: the proximal end should be connected to the P1 end, and the P2 end vessel should be fixed and the coil should be tightened. The Chamber was placed on a objective table of the microscope and the data connection between Chamber and Interface was checked. The bath cover was covered and the oxygen was introduced, to exhaust air in the pipeline. The blood vessel image was found under the microscope and then the microscope was turned to camera mode. (The knob on the side of the eyepiece was rotated to graph.) MyoVIEW software was opened. The Camera window Capture was clicked to display the blood vessel image. The equilibration of blood vessels slowly rose from 10 mmHg to 60 mmHg, and each step was 300 s. After the equilibration procedure was completed, the solution in the bath was drained. Blood vessels were stimulated (10 ml) for 2 min using a 37° C. pre-heated KPSS solution, and changes in vasoconstriction were observed, and the blood vessels were then eluted using the PSS solution to baseline. The blood vessels were equilibrated at 60 mmHg 37° C. for 45 minutes, during which time the fluid was replaced every 20 minutes. The experiment was started: observing the vasodilatory response induced by 10^−10 to 10^−5 M Ach after pre-contraction with 2 μM phenylephrine, to evaluate the effect of the drugs on the vascular endothelial function. At the end of the experiment, the fresh 37° C. pre-heated PSS buffer was replaced for equilibration for 30 min, and the 10^−10M to 10^−3 M sodium nitroprusside were given to induce vasodilatory response after pre-contraction with 2 μM phenylephrine, to evaluate the effect of the drugs on vascular smooth muscle function. LD1 was the diameter of blood vessel after relaxation by administration of different concentrations of ACh or sodium nitroprusside, LD2 was the diameter of blood vessels after pre-contraction with phenylephrine, and LD3 represented the maximum diastolic diameter of blood vessel without any stimulant.
The relaxation response to Ach and sodium nitroprusside after pre-contraction with phenylephrine was expressed as the percentage increase in the vascular diameter: % Relaxation=(LD1−LD2)/(LD3−LD2)×100.
[…] The changes of food intake and body weight were recorded, and routine biochemical indicators such as blood lipids and blood glucose, etc. were measured. After 9 weeks, 3 animals were taken from each group and the mesenteric arterioles were taken for measurement of vascular endothelial function in the same manner as in Example 2.

Structure (SMILES): CC(=O)OCC1OC(n2cnc3c(Nc4cccc(O)c4)ncnc32)C(OC(C)=O)C1OC(C)=O (stereo not shown) [IMM-H007, 2′,3,′ 5′-triacetyl-N^6(3-hydroxyphenyl)adenosine]
- High-density lipoprotein (HDL-C) [1]: 1.64 ± 1.15
- Triglyceride (TG) [1]: 1.48 ± 0.34
- plaque area, Frozen section of root of aorta % ([2]; 50 mg/kg): 3.66 ± 2.65 %
- plaque area, Overall length of aorta ([2]; 50 mg/kg): 6.18 ± 3.57
- plaque area, Frozen section of root of aorta % ([2]; 100 mg/kg): 2.36 ± 0.43 %
- plaque area, Overall length of aorta ([2]; 100 mg/kg): 3.93 ± 2.40
- plaque area, Frozen section of root of aorta % ([2]; 200 mg/kg): 2.97 ± 0.92 %
- plaque area, Overall length of aorta ([2]; 200 mg/kg): 3.67 ± 1.69
- lipid accumulation at the plaque site, section staining of the root of aorta ([2]; high-fat diet for 10 weeks): a decrease
- plaque accumulation in the arch of aorta and overall length of aorta ([2]; high-fat diet for 10 weeks): significantly reduce
- Fasting blood glucose ([3]; 4 week): 6.69 ± 0.12 mmol/L
- Fasting insulin ([3]; 4 week): 1.60 ± 0.18 ng/mL
- Free fatty acid ([3]; 4 week): 1.06 ± 0.03 mEq/l
- Ingestion ([3]; 4 week): 5.48 ± 0.05 g/day
- Low-density lipoprotein ([3]; 4 week): 1.16 ± 0.04 mmol/L
- Total cholesterol ([3]; 4 week): 3.57 ± 0.07 mmol/L
- Triglyceride ([3]; 4 week): 0.69 ± 0.03 mmol/L
- Body weight ([3]; 9 week): 51.18 ± 0.67 g
- Fasting blood glucose ([3]; 9 week): 9.98 ± 0.51 mmol/L
- Fasting insulin ([3]; 9 week): 6.07 ± 0.48 ng/mL
- Free fatty acid ([3]; 9 week): 0.44 ± 0.07 mEq/l
- Ingestion ([3]; 9 week): 5.47 ± 0.08 g/day
- Low-density lipoprotein ([3]; 9 week): 1.70 ± 0.28 mmol/L
- Total cholesterol ([3]; 9 week): 4.13 ± 0.67 mmol/L
- Triglyceride ([3]; 9 week): 0.52 ± 0.09 mmol/L
- microvascular endothelial function ([4]; 400 mg/kg, 9 weeks): improve
- acetylcholine endothelium-dependent relaxation of microvascular ([4]; 400 mg/kg, 1 × 10^−5 M Ach): 93.6 ± 1.1 %
- acetylcholine endothelium-dependent relaxation of microvascular ([4]; 400 mg/kg, 1 × 10^−6 M Ach): 82.1 ± 9.3 %
- acetylcholine endothelium-dependent relaxation of microvascular ([4]; 400 mg/kg, 1 × 10^−7 M Ach): 71.7 ± 13.5 %
- acetylcholine endothelium-dependent relaxation of microvascular ([4]; 400 mg/kg, 1 × 10^−8 M Ach): 57.6 ± 15.8 %
- acetylcholine endothelium-dependent relaxation of microvascular ([4]; 400 mg/kg, 1 × 10^−9 M Ach): 32.3 ± 18.9%
- acetylcholine endothelium-dependent relaxation of microvascular ([4]; 400 mg/kg, 1 × 10^−10 M Ach): 0.96 ± 0.85%
- sodium nitroprusside endothelium-independent relaxation of microvascular ([4]; 1 × 10^−3 M SNP): 95.0 ± 3.8%
- sodium nitroprusside endothelium-independent relaxation of microvascular ([4]; 1 × 10^−4 M SNP): 94.3 ± 2.3%
- sodium nitroprusside endothelium-independent relaxation of microvascular ([4]; 1 × 10^−5 M SNP): 91.4 ± 2.5%
- sodium nitroprusside endothelium-independent relaxation of microvascular ([4]; 1 × 10^−6 M SNP): 80.8 ± 6.9%
- sodium nitroprusside endothelium-independent relaxation of microvascular ([4]; 1 × 10^−7 M SNP): 68.3 ± 5.1%
- sodium nitroprusside endothelium-independent relaxation of microvascular ([4]; 1 × 10^−8 M SNP): 58.9 ± 3.2%
- sodium nitroprusside endothelium-independent relaxation of microvascular ([4]; 1 × 10^−9 M SNP): 43.5 ± 4.1%
- sodium nitroprusside endothelium-independent relaxation of microvascular ([4]; 1 × 10^−10 M SNP): 16.9 ± 6.3%
